The record followed here is US12605364B2, “Methods of treating SARS-CoV-2 infections” (priority 2020, dated 2026).

This test relates to SARS-CoV-2. The test can be described thus: Virus neutralization (VN) assay, scoring of SARS-CoV-2 cytopathic effects (CPE) in Vero E6 cells. The test is classed as cell-based. In general terms: Cytopathic effects are the visible damage that an infection or toxin causes in cultured cells.

The structures appear in SMILES notation. Converted amounts (≈) assume the structure as drawn. “And” between values parts separate entries of the source, which are not always exact repeats. Identical values can stand only once.

Take `O=C1CN(/N=C/c2ccc(-c3ccc([N+](=O)[O-])cc3)o2)C(O)=N1` [dantrolene]: the CPE observed entry is on record as “no CPE was observed”; the “Day 4 Read (CPE in wells)” value was 3/3 wells had No CPE and 2/3 wells had >90% and 1/3 wells had >90% and 3/3 wells had >90% and 3/3 wells had sparce; the “Day 6 Read (CPE in wells)” value is 3/3 wells had No CPE and 2/3 wells had >90% and 1/3 wells had >90% and 3/3 wells had >90% and 3/3 wells had sparce; the anti-viral activity entry is reported as “showed anti-viral activity”. For the same compound, the “cytopathic effects (indicating virus growth)” value is listed as “No cytopathic effects”. Also, for the setting “Severe acute respiratory syndrome coronavirus 2, read-out: minimum inhibitory concentration”, the MIC was 20 µM (≈ 6.29 µg/mL).
